Values of other authors as cited in patent US20020016372A1, “Method for preventing and treating alzheimer's disease and brain damage associated with cardiov ascular disease and head injury” (priority 2000, published 2002).
“Also recorded” adds a separate entry of the source. Read-outs that look alike come from different tables or passages of the source. Blank lines part the entries; values can stand above or below the compound they belong to.

What was measured:
brain sulfotransferase = details: mice; for brain sulfotransferase activity: in vivo
[1] = tested on: protein tyrosine phosphorylation in the brain; details: chick embryo
[2] = rat, dietary supplementation
NGF = details: aged rodents
Human Lymphocytes = details: comet assay
[3] = tested on: Caco-2 Colon Carcinoma Cells; details: oxidant effect

Compound: CC(=O)CC(c1ccccc1)c1c(O)c2ccccc2oc1=O (stereo not drawn) [warfarin]
- incorporation of labeled sulfate into brain sulfatides (brain sulfotransferase): decrease
- brain sulfotransferase activity (brain sulfotransferase): decrease
- protein tyrosine phosphorylation in the brain [1]: decreases

- concentration of menaquinone-4 in the brain [2]: increased; also recorded: augments
Compound: CC1=C(C/C=C(\C)CCC[C@H](C)CCC[C@H](C)CCCC(C)C)C(=O)c2ccccc2C1=O [phylloquinone, Phylloquinone]
- brain sulfotransferase activity (brain sulfotransferase): increased

Compound: COC1=C(OC)C(=O)C(CCCCCCCCCCO)=C(C)C1=O [Idebenone]
- NGF levels in the brains (NGF): increases
- activity in AD patients (European trials): appeared to have some activity
- activity in AD patients (U.S. trial (abandoned)): no activity was found

- calcium-mediated signaling [3]: perturb
- thiol-containing compounds in cells [3]: can deplete
Compound: CC1=CC(=O)c2ccccc2C1=O [menadione, 2-methylnaphthoquinone]
- DNA damage (Human Lymphocytes): can induce DNA damage

Compound: vitamin K
- protein tyrosine phosphorylation in the brain [1]: increases
